pIC50: −log10 of the molar value. Converted amounts (≈) assume the structure as drawn. Like-named read-outs stand apart in the source and are kept apart here. Where a SMILES comes first, the peptide text is derived from it. [ ]: non-standard residue; d: D form. The star is where a group is joined. d(aIle) = CC[C@H](C)[C@@H](N)C(=O)O; X1 = CC[C@H](C)CCCCC(=O)*; dDab = NCC[C@@H](N)C(=O)O; Dab = NCC[C@H](N)C(=O)O
Experiments:
[1] = system: Salmonella typhimurium; type: cell-based
Method: The Salmonella typhimurium histidine-dependent engineered tester strains are allowed to incubate with S9 enzyme mix or PBS (without S9 set) for 30 min at 35°C. After incubation, the mixture was added to 2 mL of top agar tubes maintained at 46 ± 2°C and plated onto minimal glucose agar plates. After solidification, the plates are incubated at 37°C. Salmonella typhimurium auxotrophic mutants, if grown on minimal media, are counted as the number of revertant colonies due to the mutagenic potential of the compound tested. Positive controls, growth controls, and sterility checks are included during the experimentation for the sensitivity of the experiment ([38]).

[2] = system: K. pneumoniae; type: cell-based, Klebsiella pneumoniae
Method: The MIC for all isolates was determined using the broth microdilution method. This involved preparing CA-MHB medium and serially diluting antibiotic solutions by a factor of two. The test organism was adjusted to a concentration of ≈5 × 10^5 CFU/mL. In a sterile 96-well microtiter plate, 100 µL of CA-MHB, along with 100 µL of each antibiotic, was added, and serial dilutions were made. A 100 µL suspension of the organism was added to each well and mixed, resulting in a total reaction volume of 200 µL per well. The plate was then incubated at 37°C for 16–18 h. The MIC was identified as the lowest concentration of antibiotic that prevented any visible growth of the organism ([16]).

[3] = molecular target: T1, CYP1A2 (Homo sapiens, UniProt P05177); experiment: biochemical; type: biochemical
T1 sequence (P05177 1-516): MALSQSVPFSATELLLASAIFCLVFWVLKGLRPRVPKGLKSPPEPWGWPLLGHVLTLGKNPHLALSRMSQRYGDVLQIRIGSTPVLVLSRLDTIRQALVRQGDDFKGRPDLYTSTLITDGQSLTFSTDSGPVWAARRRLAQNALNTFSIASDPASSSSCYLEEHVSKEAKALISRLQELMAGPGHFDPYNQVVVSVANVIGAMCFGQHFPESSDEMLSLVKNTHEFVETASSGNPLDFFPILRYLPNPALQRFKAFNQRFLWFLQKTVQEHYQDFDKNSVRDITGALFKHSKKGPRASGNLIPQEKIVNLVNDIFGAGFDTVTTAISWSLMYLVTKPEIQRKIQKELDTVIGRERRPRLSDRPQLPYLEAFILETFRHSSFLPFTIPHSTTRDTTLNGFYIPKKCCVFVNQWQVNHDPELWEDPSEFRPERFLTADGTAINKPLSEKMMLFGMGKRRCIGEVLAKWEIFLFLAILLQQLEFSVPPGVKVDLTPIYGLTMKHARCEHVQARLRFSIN
Method: The CYP inhibition assay was performed for test/control inhibitor items in duplicates using a 96-well fluorescence plate. An example of the preparation of CYP inhibition is given below in Table 8.
The plate with CYP master premix with test/control was incubated to allow the test/control samples to interact with CYP enzyme for 10 ± 1 min at 25°C under shaking conditions (400 rpm) using Thermomixer. The assay was initiated by adding 10 µL of a substrate and NADP^+ mixture to all wells, including a vehicle control and an assay blank. […] After incubation, the reaction was quenched by adding 50 µL of stop reagent (0.5 M Tris base) to each well.

## CC[C@H](C)CCCCC(=O)NCC(=O)N[C@H](CCN)C(=O)NCC(=O)N[C@H](CO)C(=O)N[C@H](Cc1c[nH]c2ccccc12)C(=O)N[C@@H](CO)C(=O)N[C@@H](CCN)C(=O)N[C@H](CCN)C(=O)N[C@H](C(=O)N[C@@H](CCC(=O)O)C(=O)N[C@H](C(=O)N[C@@H](C(=O)N[C@@H](CO)C(=O)O)[C@@H](C)CC)[C@@H](C)CC)[C@@H](C)CC [Tridecaptin M, tridecaptin M] (X1-G[dDab]G[dS][dW]S[Dab][dDab]IEI[d(aIle)]S-OH)
[1]; 0.03 μg/plate
  AMES test Remark: Mutagenic response not observed
  AMES test TA98: NC, NR
  AMES test TA100: NC, NR
  AMES test TA102: NC, NR
  AMES test TA1535: NC, NR
  AMES test TA1537: NC, NR
[1]; 0.10 μg/plate
  AMES test Remark: Mutagenic response not observed
  AMES test TA98: NC, NR
  AMES test TA100: NC, NR
  AMES test TA102: NC, NR
  AMES test TA1535: NC, NR
  AMES test TA1537: NC, NR
[1]; 0.32 μg/plate
  AMES test Remark: Mutagenic response not observed
  AMES test TA98: NC, NR
  AMES test TA100: NC, NR
  AMES test TA102: NC, NR
  AMES test TA1535: NC, NR
  AMES test TA1537: NC, NR
[1]; 1.00 μg/plate
  AMES test Remark: Mutagenic response not observed
  AMES test TA98: NC, NR
  AMES test TA100: NC, NR
  AMES test TA102: NC, NR
  AMES test TA1535: NC, NR
  AMES test TA1537: NC, NR
[1]; 3.16 μg/plate
  AMES test Remark: Mutagenic response not observed
  AMES test TA98: NC, NR
  AMES test TA100: NC, NR
  AMES test TA102: NC, NR
  AMES test TA1535: NC, NR
  AMES test TA1537: NC, NR
[1]; 10 μg/plate
  AMES test Remark: Cytotoxicity observed
  AMES test TA98: PI, RC
  AMES test TA100: PI, RC
  AMES test TA102: PI, RC
  AMES test TA1535: PI, RC
  AMES test TA1537: PI, RC
[1]; 10 µg/plate and above
  effect on Salmonella typhimurium tester strains: cytotoxic
[1]; 3.16, 1.00, 0.32 and 0.10 µg/plate, presence and absence of S9
  mutagenic potential: did not show any mutagenic potential
[2]
  MIC: 4 µg/mL (≈ 2.69 µM)
  MIC90: 8 µg/mL (≈ 5.37 µM)
  MIC range: 2 to 8 µg/mL
  MIC values: 2 to 8 µg/mL
[3]
  pIC50: < 4.52
[3]; human, % inhibition CYP 1A2
  inhibition at 25 min, 0.01 µM: < 0%
  inhibition at 25 min, 0.03 µM: < 0%
  inhibition at 25 min, 0.1 µM: < 0%
  inhibition at 25 min, 0.3 µM: < 0%
  inhibition at 25 min, 1 µM: < 0%
  inhibition at 25 min, 3 µM: < 0%
  inhibition at 25 min, 10 µM: < 0%
  inhibition at 25 min, 30 µM: ≤ 0%
